Source: ChEMBL document CHEMBL1629593 (Antimicrob Agents Chemother, 2009)
Calls of active or inactive are those of the source. The rule behind the calls is not given here.

Key:
[1] = Ratio of fAUC in […] pharmacodynamic model to MIC for heterogeneous vancomycin-intermediate Staphylococcus aureus Mu3 at 5000 mg treated every 12 hrs; assay type: functional
Staphylococcus aureus [2] = experiment: fCmin in heterogeneous vancomycin-intermediate Staphylococcus aureus Mu3 infected […] pharmacodynamic model at 1000 mg treated every 12 hrs; assay type: ADME, organism-based
Staphylococcus aureus [3] = experiment: Antibacterial activity against heterogeneous vancomycin-intermediate Staphylococcus aureus 1629 infected in […] pharmacodynamic model at 700 mg treated every 12 hrs measured after 72 hrs post dose; assay type: functional
[4] = Ratio of fAUC in […] pharmacodynamic model to MIC for multidrug-resistant Staphylococcus aureus; assay type: functional
[5] = Ratio of fAUC in […] pharmacodynamic model to MIC for heterogeneous vancomycin-intermediate Staphylococcus aureus Mu3 at 2500 mg treated every 12 hrs; assay type: functional
[6] = Ratio of fAUC in […] pharmacodynamic model to MIC for multidrug-resistant Staphylococcus aureus 3286 at 4000 mg treated every 12 hrs; assay type: functional
[7] = Ratio of fAUC in […] pharmacodynamic model to MIC for heterogeneous vancomycin-intermediate Staphylococcus aureus Mu3 at 1000 mg treated every 12 hrs; assay type: functional
Staphylococcus aureus [8] = experiment: fCmin in heterogeneous vancomycin-intermediate Staphylococcus aureus 1629 infected in vivo pharmacodynamic model at 2000 mg treated every 12 hrs; assay type: ADME, organism-based
Staphylococcus aureus [9] = experiment: fCmin in heterogeneous vancomycin-intermediate Staphylococcus aureus 1629 infected in vivo pharmacodynamic model at 4000 mg treated every 12 hrs; assay type: ADME, organism-based
Staphylococcus aureus [10] = experiment: fCmin in multidrug-resistant Staphylococcus aureus 3286 infected […] pharmacodynamic model at 1000 mg treated every 12 hrs; assay type: ADME, organism-based
[11] = Ratio of fAUC in […] pharmacodynamic model to MIC for heterogeneous vancomycin-intermediate Staphylococcus aureus Mu3 at 2250 mg treated every 12 hrs; assay type: functional
Staphylococcus aureus [12] = experiment: fCmin in heterogeneous vancomycin-intermediate Staphylococcus aureus Mu3 infected in vivo pharmacodynamic model at 700 mg treated every 12 hrs; assay type: ADME, organism-based
Staphylococcus aureus [13] = experiment: Antibacterial activity against multidrug-resistant Staphylococcus aureus 3286 infected in in vitro pharmacodynamic model at 1000 to 2000 mg treated every 12 hrs using 10^6 CFU/ml inoculum by time-kill analysis; assay type: functional, organism-based
Staphylococcus aureus [14] = experiment: Antibacterial activity against heterogeneous vancomycin-intermediate Staphylococcus aureus Mu3 infected in […] pharmacodynamic model at 1000 mg treated every 12 hrs measured after 24 hrs post dose; assay type: functional
[15] = Ratio of fAUC in […] pharmacodynamic model to MIC for heterogeneous vancomycin-intermediate Staphylococcus aureus 1629 at 4000 mg treated every 12 hrs; assay type: functional
Staphylococcus aureus [16] = experiment: fCmin in heterogeneous vancomycin-intermediate Staphylococcus aureus Mu3 infected in vivo pharmacodynamic model at 1500 mg treated every 12 hrs; assay type: ADME, organism-based
[17] = Ratio of fAUC in […] pharmacodynamic model to MIC for multidrug-resistant Staphylococcus aureus 3286 at 1500 mg treated every 12 hrs; assay type: functional
Staphylococcus aureus [18] = experiment: fCmin in heterogeneous vancomycin-intermediate Staphylococcus aureus 1629 infected in vivo pharmacodynamic model at 750 mg treated every 12 hrs; assay type: ADME, organism-based
[19] = Ratio of fAUC in […] pharmacodynamic model to MIC for heterogeneous vancomycin-intermediate Staphylococcus aureus 1629 at 1000 mg treated every 12 hrs; assay type: functional
[20] = Ratio of fAUC in […] pharmacodynamic model to MIC for heterogeneous vancomycin-intermediate Staphylococcus aureus Mu3 at 750 mg treated every 12 hrs; assay type: functional
[21] = Ratio of fAUC in […] pharmacodynamic model to MIC for heterogeneous vancomycin-intermediate Staphylococcus aureus 1629 at 2000 mg treated every 12 hrs; assay type: functional
Staphylococcus aureus [22] = experiment: fCmin in heterogeneous vancomycin-intermediate Staphylococcus aureus Mu3 infected in vivo pharmacodynamic model at 2250 mg treated every 12 hrs; assay type: ADME, organism-based
[23] = Ratio of fAUC in […] pharmacodynamic model to MIC for multidrug-resistant Staphylococcus aureus 3286 at 1000 mg treated every 12 hrs; assay type: functional
Staphylococcus aureus [24] = experiment: fCmin in heterogeneous vancomycin-intermediate Staphylococcus aureus 1629 infected in vivo pharmacodynamic model at 1750 mg treated every 12 hrs; assay type: ADME, organism-based
Staphylococcus aureus [25] = experiment: Antibacterial activity against multidrug-resistant Staphylococcus aureus 3286 infected in […] pharmacodynamic model at 2000 mg treated every 12 hrs measured after 48 hrs post dose; assay type: functional
Staphylococcus aureus [26] = experiment: fCmin in heterogeneous vancomycin-intermediate Staphylococcus aureus 1629 infected […] pharmacodynamic model at 1000 mg treated every 12 hrs; assay type: ADME, organism-based
Staphylococcus aureus [27] = experiment: fCmin in multidrug-resistant Staphylococcus aureus 3286 infected in vivo pharmacodynamic model at 1500 mg treated every 12 hrs; assay type: ADME, organism-based
Staphylococcus aureus [28] = experiment: fCmin in heterogeneous vancomycin-intermediate Staphylococcus aureus Mu3 infected […] pharmacodynamic model at 2000 mg treated every 12 hrs; assay type: ADME, organism-based
[29] = Ratio of fAUC in […] pharmacodynamic model to MIC for heterogeneous vancomycin-intermediate Staphylococcus aureus 1629 at 750 mg treated every 12 hrs; assay type: functional
Staphylococcus aureus [30] = experiment: fCmin in heterogeneous vancomycin-intermediate Staphylococcus aureus Mu3 infected in vivo pharmacodynamic model at 5000 mg treated every 12 hrs; assay type: ADME, organism-based
Staphylococcus aureus [31] = experiment: Antibacterial activity against multidrug-resistant Staphylococcus aureus 3286 infected in […] pharmacodynamic model at 4000 mg treated every 12 hrs measured after 72 hrs post dose; assay type: functional
[32] = Ratio of fAUC in […] pharmacodynamic model to MIC for heterogeneous vancomycin-intermediate Staphylococcus aureus Mu3 at 2000 mg treated every 12 hrs; assay type: functional
Staphylococcus aureus [33] = experiment: fCmin in multidrug-resistant Staphylococcus aureus 3286 infected […] pharmacodynamic model at 4000 mg treated every 12 hrs; assay type: ADME, organism-based
Staphylococcus aureus [34] = experiment: Antibacterial activity against heterogeneous vancomycin-intermediate Staphylococcus aureus Mu3 infected in […] pharmacodynamic model at 1500 mg treated every 12 hrs measured after 48 hrs post dose; assay type: functional
Staphylococcus aureus [35] = experiment: fCmin in multidrug-resistant Staphylococcus aureus 3286 infected in vivo pharmacodynamic model at 2000 mg treated every 12 hrs; assay type: ADME, organism-based
Staphylococcus aureus [36] = experiment: fCmin in heterogeneous vancomycin-intermediate Staphylococcus aureus Mu3 infected in vivo pharmacodynamic model at 2500 mg treated every 12 hrs; assay type: ADME, organism-based
Staphylococcus aureus [37] = experiment: Antibacterial activity against heterogeneous vancomycin-intermediate Staphylococcus aureus Mu3 infected in […] pharmacodynamic model at 2500 mg treated every 12 hrs measured after 48 hrs post dose; assay type: functional
[38] = Ratio of fAUC in […] pharmacodynamic model to MIC for multidrug-resistant Staphylococcus aureus 3286 at 2000 mg treated every 12 hrs; assay type: functional
Staphylococcus aureus [39] = experiment: Antibacterial activity against heterogeneous vancomycin-intermediate Staphylococcus aureus Mu3 infected in […] pharmacodynamic model at 1000 mg treated every 12 hrs measured after 48 hrs post dose; assay type: functional
Staphylococcus aureus [40] = experiment: fCmin in heterogeneous vancomycin-intermediate Staphylococcus aureus 1629 infected in vivo pharmacodynamic model at 1500 mg treated every 12 hrs; assay type: ADME, organism-based
Staphylococcus aureus [41] = experiment: Antibacterial activity against heterogeneous vancomycin-intermediate Staphylococcus aureus Mu3 infected in […] pharmacodynamic model at 2500 mg treated every 12 hrs measured after 24 hrs post dose; assay type: functional

Compound: CN[C@H](CC(C)C)C(=O)N[C@H]1C(=O)N[C@@H](CC(N)=O)C(=O)N[C@H]2C(=O)N[C@H]3C(=O)N[C@H](C(=O)N[C@H](C(=O)O)c4cc(O)cc(O)c4-c4cc3ccc4O)[C@H](O)c3ccc(c(Cl)c3)Oc3cc2cc(c3O[C@@H]2O[C@H](CO)[C@@H](O)[C@H](O)[C@H]2O[C@H]2C[C@](C)(N)[C@H](O)[C@H](C)O2)Oc2ccc(cc2Cl)[C@H]1O [VANCOMYCIN]
- fAUC/MIC [1]: 799
- fCmin (Staphylococcus aureus [2]): 4 mg/L
- CFU/ml (Staphylococcus aureus [3]): 3
- fAUC/MIC [4]: >=180
- fAUC/MIC [5]: 374
- fAUC/MIC [6]: 2576
- fAUC/MIC [7]: 168
- fCmin (Staphylococcus aureus [8]): 12 mg/L
- fCmin (Staphylococcus aureus [9]): 22 mg/L
- fCmin (Staphylococcus aureus [10]): 3 mg/L
- fAUC/MIC [11]: 317
- fCmin (Staphylococcus aureus [12]): 3 mg/L
- Activity (Staphylococcus aureus [13]): Active
- CFU/ml (Staphylococcus aureus [14]): 2
- fAUC/MIC [15]: 644
- fCmin (Staphylococcus aureus [16]): 7 mg/L
- fAUC/MIC [17]: 992
- fCmin (Staphylococcus aureus [18]): 3 mg/L
- fAUC/MIC [19]: 138
- fAUC/MIC [20]: 105
- fAUC/MIC [21]: 271
- fCmin (Staphylococcus aureus [22]): 12 mg/L
- fAUC/MIC [23]: 552
- fCmin (Staphylococcus aureus [24]): 10 mg/L
- CFU/ml (Staphylococcus aureus [25]): 0.5
- fCmin (Staphylococcus aureus [26]): 3 mg/L
- fCmin (Staphylococcus aureus [27]): 7 mg/L
- fCmin (Staphylococcus aureus [28]): 11 mg/L
- fAUC/MIC [29]: 105
- fCmin (Staphylococcus aureus [30]): 26 mg/L
- CFU/ml (Staphylococcus aureus [31]): 0.5
- fAUC/MIC [32]: 269
- fCmin (Staphylococcus aureus [33]): 22 mg/L
- CFU/ml (Staphylococcus aureus [34]): 3
- fCmin (Staphylococcus aureus [35]): 12 mg/L
- fCmin (Staphylococcus aureus [36]): 16 mg/L
- CFU/ml (Staphylococcus aureus [37]): 2
- fAUC/MIC [38]: 1084
- CFU/ml (Staphylococcus aureus [39]): 3
- fCmin (Staphylococcus aureus [40]): 7 mg/L
- CFU/ml (Staphylococcus aureus [41]): 2
